In US8778974B2, “Trisubstituted 1,2,4 triazoles” (Janssen Pharmaceutica NV, priority 2008, dated 2014):

Tests used:
[1] = target: T1, hα7-wt nAChR-expressing cells (Homo sapiens, UniProt P36544); experiment: Ca2+ flux imaging (FDSS) (Protocol B), PAM activity with choline 100 μM; type: cell-based; settings: according to Ex. D.1b; read-out: % Efficacy
T1 construct: expressed in transfected cells; host or cells: hα7-wt nAChR-expressing cells
Experimental: Ca^2+ Flux Imaging (FDSS) (Protocol B)
• a) Assay buffer • Hanks buffered saline solution (HBSS, Invitrogen, Belgium), supplemented with 10 mM HEPES (Invitrogen, Belgium), CaCl2 to a final concentration of 5 mM, 0.1% Bovine serum albumin (Sigma-Aldrich NV, Belgium). • b) Calcium-sensitive dye—Fluo-4AM • Fluo-4AM (Molecular Probes, USA) was dissolved in DMSO containing 10% Pluronic acid (Molecular Probes, USA) to give a stock solution which was diluted in assay buffer supplemented with 5 mM probenicid (Sigma, Al-drich NV, Belgium) to give a final concentration of 2 μM. • c) 384-well plates • Black 384 well plate black/clear plates, PDL pre-coated (Corning, Incorporated, USA) • d) Calcium flux measurement • A Functional drug screening system (FDSS, Hamamatsu) was used to measure intracellular free-calcium flux signals. Method
Monolayers of hα7-wt nAChR-expressing cells were grown in multi-well plates, in particular black-sided, transparent bottomed 384 well plates coated with poly-D-lysine for 24 hours prior to loading with a fluorescent calcium indicator, in a particular embodiment loading with fluo-4AM for up to 120 minutes.
PAM activity was detected in real time by applying the compounds to be tested to the loaded cells along with a α7 nicotinic receptor agonist during constant monitoring of cellular fluorescence in a FDSS. Compounds giving peak fluorescent responses greater than the response due to agonist alone, were considered to be α7 nAChR PAM's. In a particular embodiment, the α7 nicotinic receptor agonist was choline, a more particular embodiment choline applied at a sub-maximal concentration of 100 μM. In a further setting of the present invention the compounds to be tested were applied prior to the α7 nicotinic receptor agonist, in a particular embodiment up to 10 minutes prior to the agonist.
A control response to choline was calculated on each plate from the difference in peak in fluorescence in wells receiving either choline or assay buffer alone. Compounds of the present invention were tested at a concentration range from 0.01 μM to 30 μM. Compounds were considered to have an interesting activity when they potentiated the choline signal at least with 500% when tested at a concentration of 30 μM (the efficacy of 100 μM choline was defined as 100% in the absence of a PAM). The compounds also have a potentiating effect on the response to choline when measured by whole-cell patch clamp electrophysiology in GH4Cl cells stably over-expressing the human wild-type α7 receptor.

[2] = target: T2, hα7-wt nAChR-expressing GH4Cl cells (Homo sapiens, UniProt P36544); experiment: Patch-clamp current recording (whole-cell), potentiation of choline 1 mM response, PAM type; type: cell-based; design: key to Pam type: Type 0 compounds minimally enhance the effect size of the current elicited by 1 mM choline.; Type 1 compounds enhance the effect size of the current elicited by 1 mM choline but minimally alter the kinetics of the receptor.; Type 2 compounds enhance the effect size of the current elicited by 1 mM choline while reducing the rate and/or the extent of desensitization.; Type 3 compounds enhance the effect size of the current elicited by 1 mM choline. When tested at higher concentrations up to 10 μM they completely inhibit desensitization, in particular a 1 mM choline application of 250 milliseconds.; Type 4 compounds allow for an initial desensitization of the receptor followed by a re-opening of the receptor during agonist application; settings: for EC50: according to Ex. D.2, "<5" = no top plateau reached at maximal concentration, read-out: Potency (pEC50) (converted); for Pam type: patch-clamp current recording, 1 mM choline
T2 construct: expressed in transfected cells
Procedure, shortened: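 PAM type assigned qualitatively from current size and desensitization rate/extent when compound is applied simultaneously with 1 mM choline. Recordings: hα7-wt nAChR GH4Cl cells, whole-cell patch clamp, holding −70 mV, series resistance <15 MΩ with ≥60% compensation, pH 7.3 HEPES solutions, solution switching <100 ms.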

T2 sequence (P36544 23-502): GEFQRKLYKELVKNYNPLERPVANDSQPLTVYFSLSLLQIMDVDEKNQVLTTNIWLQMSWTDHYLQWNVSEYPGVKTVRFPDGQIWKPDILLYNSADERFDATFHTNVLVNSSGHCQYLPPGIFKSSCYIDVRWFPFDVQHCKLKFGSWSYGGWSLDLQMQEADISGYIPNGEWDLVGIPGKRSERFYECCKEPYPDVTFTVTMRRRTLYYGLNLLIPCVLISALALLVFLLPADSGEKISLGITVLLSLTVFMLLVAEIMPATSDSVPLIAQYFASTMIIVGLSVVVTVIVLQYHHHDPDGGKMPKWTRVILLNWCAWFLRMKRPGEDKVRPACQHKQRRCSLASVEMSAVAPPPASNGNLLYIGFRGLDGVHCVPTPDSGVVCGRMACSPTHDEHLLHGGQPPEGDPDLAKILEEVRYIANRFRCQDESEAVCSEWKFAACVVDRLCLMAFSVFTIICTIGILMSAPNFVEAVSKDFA
T1 sequence (P36544 23-502): as above

| SMILES | Emax [1] [%] | melting point [°C] | EC50 [2] [nM] | Pam type [2] |
| --- | --- | --- | --- | --- |
| Cc1cc(-n2nc(Nc3ccc(F)c(F)c3)nc2CC(=O)NC2CCC2)c(C)cn1 [E162] | 623 | 244.1 | 2880 | 1 |
| Cc1cc(-n2nc(Nc3cc(F)cc(C(F)(F)F)c3)nc2CC(=O)NC2CCC2)cc(C)n1 [E254] | 662 | 291.8 | 75.9 | – |
| C/C=C/c1nc(Nc2ccc(F)c(C(F)(F)F)c2)nn1-c1ccnc(C)c1 [E11, N-[4-Fluoro-3-(trifluoromethyl)phenyl]-1-(2-methyl-4-pyridinyl)-5-[(1E)-1-propenyl]-1H-1,2,4-triazol-3-amine] | 341 | 226.3 | 138 | – |
| Cc1cc(-n2nc(Nc3cccc(Cl)c3F)nc2CC(=O)NC2CC2)c(C)cn1 [E157] | 492 | 192.6 | 3800 | 2 |
| CC[C@@H](O)Cc1nc(Nc2cc(OC)cc(C(F)(F)F)c2)nn1-c1cc(C)nc(C)c1 [E128] | 994 | 138.8 | 126 | 4 |
| CNC(=O)CCc1nc(Nc2ccc(F)c(F)c2)nn1-c1ccc(OC(F)(F)F)cc1 [E47] | 698 | – | 1510 | – |
| Cc1cc(-n2nc(Nc3cccc(Cl)c3F)nc2CC(=O)NC2CCC2)c(C)cn1 [E159] | 592 | – | 1740 | 1 |
| CNC(=O)CCc1nc(Nc2ccc(F)c(F)c2)nn1-c1cccc(Cl)c1 [E39] | 674 | – | 2570 | – |
| Cc1cc(-n2nc(Nc3ccc(F)c(C(F)(F)F)c3)nc2CCCCl)ccn1 [E9, 5-(3-chloropropyl)-N-[4-fluoro-3-(trifluoromethyl)phenyl]-1-(2-methyl-4-pyridinyl)-1H-1,2,4-triazol-3-amine] | – | 182.8 | 437 | – |
| Cc1cncc(-n2nc(Nc3ccc4c(c3)OC(F)(F)O4)nc2CCC(=O)N(C)C)c1 [E119] | – | 141.1 | 107 | 4 |
| COCCCc1nc(Nc2ccc(F)c(C(F)(F)F)c2)nn1-c1ccncc1Cl [E12, 1-(3-Chloro-4-pyridinyl)-N-[4-fluoro-3-(trifluoromethyl)phenyl]-5-(3-methoxypropyl)-1H-1,2,4-triazol-3-amine] | – | 105.3 | 2240 | – |
| Cc1cc(-n2nc(Nc3cccc(Cl)c3F)nc2CC(=O)NCC2CC2)c(C)cn1 [E158] | 328 | – | 1380 | 1 |
| CNC(=O)CCc1nc(Nc2ccc(F)c(F)c2)nn1-c1ccccc1Cl [E38] | 253 | – | 3090 | – |
| Cc1cc(-n2nc(Nc3ccc4c(c3)OC(F)(F)O4)nc2CC(=O)NCC2CC2)c(C)cn1 [E161] | – | 227.2 | 1320 | 2 |
| COc1cc(Nc2nc(C[C@H](C)O)n(-c3cccnc3)n2)cc(C(F)(F)F)c1 [E144] | – | 145.5 | 2950 | – |
| CC[C@H](O)Cc1nc(Nc2cc(OC)cc(C(F)(F)F)c2)nn1-c1ccnc(C)c1 [E137, (alphaS)-alpha-Ethyl-3-[[3-methoxy-5-(trifluoromethyl)phenyl]amino]-1-(2-methyl-4-pyridinyl)-1H-1,2,4-triazole-5-ethanol] | – | 174.1 | 105 | 4 |
| COCCc1nc(Nc2ccc(F)c(C(F)(F)F)c2)nn1-c1ccnc(C)c1 [E13] | – | 170.4 | 240 | 0 |
| Cc1cc(-n2nc(Nc3cccc(OC(F)(F)F)c3)nc2CC(=O)NCC2CC2)cc(C)n1 [E165] | – | 247.5 | 209 | 1 |
| COc1ccc(-n2nc(Nc3ccc(F)c(F)c3)nc2C[C@H](C)O)cc1 [E21] | – | 181.4 | 1780 | 1 |
| COc1cccc(-n2nc(Nc3cccc(OC(F)(F)F)c3)nc2CCC(=O)N(C)C)c1 [E60] | – | 133.5 | 282 | 0 |
| CN(C)C(=O)CCc1nc(Nc2ccc(F)c(F)c2)nn1-c1ccc(Cl)cc1 [E59] | – | 145.1 | 245 | 4 |
| CC[C@H](O)Cc1nc(Nc2ccc(F)c(F)c2)nn1-c1ccnc(C)c1 [E30] | – | 171.1 | 676 | 2 |
| Cc1cc(-n2nc(Nc3cccc(Cl)c3F)nc2CC(=O)NC2CCC2)cc(C)n1 [E152] | – | 234 | 245 | 2 |

The next lines start with results.

| Emax [1] [%] | melting point [°C] | SMILES | EC50 [2] [nM] | Pam type [2] |
| --- | --- | --- | --- | --- |
| 372 | 286.7 | Cc1cc(-n2nc(Nc3cc(F)cc(F)c3)nc2CC(=O)NC2CCC2)cc(C)n1 [E239] | 126 | – |
| 620 | 264.4 | COc1cc(Cl)cc(Nc2nc(CC(=O)NC3CC3)n(-c3cc(C)nc(C)c3)n2)c1 [E221] | 209 | 4 |
| 808 | 210.3 | Cc1cc(-n2nc(Nc3ccc(F)c(F)c3)nc2C[C@@H](C)O)ccn1 [E198] | 1860 | 2 |
| 546 | 283.2 | CCNC(=O)Cc1nc(Nc2ccc(F)c(Cl)c2)nn1-c1cc(C)nc(C)c1 [E250] | 105 | – |
| 589 | 211.2 | Cc1cc(-n2nc(Nc3ccc(F)c(F)c3)nc2CC(=O)NCC2CC2)c(C)cn1 [E166] | 2340 | 1 |
| 616 | – | Cc1cc(-n2nc(Nc3cccc(Cl)c3F)nc2CCC(=O)N(C)C)cc(C)n1 [E265] | 37.2 | – |
| 711 | – | Cc1cc(-n2nc(Nc3ccc(F)c(C(F)(F)F)c3)nc2CC(=O)NC2CC2)cc(C)n1 [E226] | 120 | 1 |
| 663 | 289.3 | Cc1cc(-n2nc(Nc3cc(F)cc(Cl)c3)nc2CC(=O)NC2CC2)cc(C)n1 [E247] | 214 | – |
| – | 241.5 | CCNC(=O)Cc1nc(Nc2ccc(F)c(F)c2F)nn1-c1cc(C)nc(C)c1 [E210] | 417 | 2 |
| 327 | – | Cc1nccc(-n2nc(Nc3cccc(Cl)c3F)nc2CC(=O)NCC2CC2)c1C [E193] | ~3020 | – |
| 646 | – | CC[C@H](O)Cc1nc(Nc2cc(OC)cc(C(F)(F)F)c2)nn1-c1ccnc(C)c1C [E220] | 2040 | – |
| 718 | – | COc1ccc(-n2nc(Nc3cccc(OC(F)(F)F)c3)nc2CCC(=O)N(C)C)cc1 [E183] | 26.9 | 1 |
| – | 133.2 | CC[C@H](O)Cc1nc(Nc2ccc(OC)cc2)nn1-c1ccnc(C)c1 [E202] | 2750 | 2 |
| – | 276.3 | Cc1cc(-n2nc(Nc3cccc(C(F)(F)F)c3)nc2CC(=O)NC2CCC2)cc(C)n1 [E174] | 162 | 2 |
| – | 283.6 | CCNC(=O)Cc1nc(Nc2cccc(C(F)(F)F)c2)nn1-c1cc(C)nc(C)c1 [E175] | 550 | 4 |
| – | 244 | CCNC(=O)C(C)c1nc(Nc2ccc3c(c2)OC(F)(F)O3)nn1-c1cc(C)nc(C)c1 (centres unmarked) [E275] | 1050 | 2 |
| – | 151.9 | CC[C@@H](O)Cc1nc(Nc2cc(OC)cc(C(F)(F)F)c2)nn1-c1ccc(C)nc1 [E195] | 3630 | – |
| – | 264.4 | Cc1cc(-n2nc(Nc3cccc(OC(F)(F)F)c3)nc2CC(=O)NC2CCC2)cc(C)n1 [E184] | 257 | 2 |
